Consider one compound from patent US20250186470A1, “Compositions and Methods Using Lactulose for Treating Disease” (THE UNIVERSITY OF CHICAGO, priority 2023, published 2025).

Test [1] in a line: 90-day survival of liver disease patients, Kaplan-Meier and Cox proportional hazards. It is filed as in vivo, human. Conditions: Table S10, covariate Lactulose, Bifido >10%, model also has MELD-Na, age and sex at enrollment. The protocol: FIGS. 5A-5H: Bifidobacteria expansion and associated metabolite production are associated with decreased incidence of systemic infection and prolonged survival. (A) A Linear discriminant analysis effect size (LEfSe) showing the significant (Wilcoxon rank-sum, two-tailed, p≤0.05) effect sizes of taxa between groups. (B) Acetate (mM) and taurocholic acid (μg/mL) were quantified, and (C) conversion from conjugated-primary BA to primary BA and then to secondary BAs was tested for each sample. Each point represents a molar ratio for an individual sample. (A-C) Sample size: n=101 (no SBP), n=21 (SBP)). (D) LEfSe showing the significant (Wilcoxon rank-sum, two-tailed, p≤0.05) effect sizes of taxa between groups. (E) Acetate (mM) and taurocholic acid (μg/mL) were quantified, and (F) conversion from conjugated-primary BA to primary BA and then to secondary BAs was tested for each sample. Each point represents a molar ratio for an individual sample. (D-F) Sample size: n=227 (no bacteremia), n=19 (bacteremia)). (B,C,E, and F) Each point represents a single sample. Median and interquartile range are indicated by the horizontal line and box, respectively. The lower vertical line depicts Q1-1.5*IQR and the upper vertical line depicts Q3+1.5*IQR. Statistical comparisons between individual groups were analyzed using a two-tailed Wilcoxon rank sum test. […]

Test [2] relates to VRE (vancomycin resistant Enterococcus faecium, ATCC 700221). The experiment in a line: VRE growth curves in B. longum conditioned media, SCFA- or lactulose-supplemented media. Type of test: cell-based. Conditions: 50 mM lactulose in media. As for the experimental part:
FIGS. 11A-11F: Bifidobacterium longum supernatant inhibits VRE growth in vitro. (A) Schematic of experimental design for VRE growth in B. longum conditioned media (CM). B. longum was grown in BHIS for 24-hours prior to collecting and filtering the supernatant. VRE growing at steady state was then diluted to a low density (OD600=0.05) prior to inoculating in various dilutions of B. longum conditioned media in fresh BHIS. (B) VRE growth curves in 100%, 50%, 12.5%, and 0% CM with the pH of the 4 concentrations of CM in BHIS shown in the right portion of this panel. […] (E) VRE was grown in minimal media containing either no additive (blue) or 50 mM lactulose, and OD600 was measured over time. (F) VRE was grown in BHIS with or without 50 mM lactulose, and OD600 was measured over time. […]
The Bifidobacteria longum strains MSK.11.12 and DFI.2.45 were previously derived from two distinct healthy donor stool samples and whole genome sequenced (BioSample ID: SAMN19731851 and SAMN22167409). […] All growth curves were obtained in anaerobic culture conditions at 37° C. on a BioTek EPOCH2 microplate reader with BioTek Gen 5 3.11 software. Growth curves were analyzed in GraphPad Prism Version 9.4.0. Lactulose concentrations in were measured using the EnzyChrom™ Lactulose Assay Kit (ELTL-100).

For test [3], the system named is Proteobacteria (Enterobacteriaceae). The experiment in a line: Fecal shotgun metagenomics of hospitalized liver disease patients stratified by lactulose exposure: Enterobacteriaceae/Proteobacteria abundance. It is filed as in vivo, human. Particulars: fecal samples from lactulose-treated patients.

Turning to `OC[C@H]1O[C@@H](O[C@@H]2[C@@H](CO)OC(O)(CO)[C@H]2O)[C@H](O)[C@@H](O)[C@H]1O` (mixture of isomers) [Lactulose, lactulose], in test [1], the “Estimate (Cox proportional hazards coefficient)” value is −0.87 and the “Exp (coef)” value is on record as 0.42. The VRE growth result in test [2] is reported as “modestly augments”. Besides, in test [3], the “Enterobacteriaceae abundance, mean” value is listed as 7.9%; the “Enterobacteriaceae abundance, median” value is 0.9%; the “Enterobacteriaceae abundance, range” value is reported as 0.0-98.8%.
